Laboratory results reported in US20240270736A1, “MACROCYCLIC HETEROCYCLES AND USES THEREOF” (Kumquat Biosciences Inc., priority 2022, published 2024).
pIC50: −log10 of the molar value.

Experiments:
Format in all cases: binding
KRAS G12D = molecular target: T1, KRAS G12D (Homo sapiens, UniProt P01116, G12D); assay: HTRF assay, interaction of KRAS G12D with SOS1; conditions: Ras::SOS1 interaction, read-out: Inhibition of KRAS G12D (IC50)
T1 construct: made in house; host or cells: E. coli, e.g. BL21 (DE3)
T1 sequence (P01116 1-188 isoform P01116-2 G12D): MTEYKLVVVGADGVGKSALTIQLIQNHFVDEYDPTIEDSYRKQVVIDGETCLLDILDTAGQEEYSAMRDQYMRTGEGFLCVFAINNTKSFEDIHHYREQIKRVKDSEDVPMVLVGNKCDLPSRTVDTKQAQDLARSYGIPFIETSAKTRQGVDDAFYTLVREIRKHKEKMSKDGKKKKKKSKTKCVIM
Text: (§1) This assay can be also used to assess a selective inhibition or reduction of signaling output of a mutant Ras protein relative to a wildtype, or relative to a different mutant Ras protein. For example, the equilibrium interaction of wildtype Kras or K-Ras mutant (e.g., wildtype or a mutant thereof) with SOS1 (e.g., hSOS1) can be assessed as a proxy or an indication for a subject compound's ability to bind and inhibit Ras protein. The HTRF assay detects from (i) a fluorescence resonance energy transfer (FRET) donor (e.g., antiGST-Europium) that is bound to GST-tagged K-Ras mutant to (ii) a FRET acceptor (e.g., anti-6His-XL665) bound to a His-tagged hSOS1.
(§2) The assay buffer can contain ˜5 mM HEPES pH 7.4, ˜150 mM NaCl, ˜ 1 mM DTT, 0.05% BSA and 0.0025% (v/v) Igepal. A Ras working solution is prepared in an assay buffer containing typically a suitable amount of the protein construct (e.g., GST-tagged K-Ras mutant) and the FRET donor (e.g., antiGST-Eu(K) from Cisbio, France). A SOS1 working solution is prepared in an assay buffer containing suitable amount of the protein construct (e.g., His-hSOS1) and the FRET acceptor (e.g., anti-6His-XL665 from Cisbio, France). A suitable amount of the protein construct will depend on the range of activity or range of IC50 values being detected or under investigation. For detecting an IC50 within a range of 500 nM, the protein constructs of the same range of molarity can be utilized.
(§3) A fixed volume of DMSO with or without test compound is transferred into a 384-well plate. Ras working solution is added to all wells of the test plate. SOS1 working solution is added to all wells except for those that are subsequently filled with inhibitor control solution. Upon incubation for about 10 minutes or longer, the fluorescence is measured with a M1000Pro plate reader (Tecan) using HTRF detection (excitation 337 nm, emission 1: 620 nm, emission 2: 665 nm). Compounds are tested in duplicate at different concentrations (for example, 10 μM, 2.5 μM, 0.63 μM, 0.16 μM, 0.04 μM, 0.01 μM test compound). The ratiometric data (i.e., emission 2 divided by emission 1) is used to calculate IC50 values against Ras using GraphPad Prism (GraphPad software). Signaling output measured in terms of IC50 values can be obtained and a ratio of IC50 against one mutant relative to another mutant can be calculated. For instance, a selective reduction of K-Ras G12D signaling output can be evidenced by a ratio greater than one. In particular, a selective reduction of K-Ras G12D signaling relative to K-Ras WT signaling is evidenced if the ratio of IC50 (against K-Ras WT) to IC50 (against K-Ras G12D) is greater than 1.

wildtype KRAS = molecular target: T2, wildtype KRAS (Homo sapiens, UniProt P01116); assay: HTRF assay, interaction of wildtype KRAS with SOS1; conditions: Ras::SOS1 interaction, read-out: Inhibition of KRAS WT (IC50)
T2 construct: made in house; host or cells: E. coli, e.g. BL21 (DE3)
T2 sequence (P01116 1-188 isoform P01116-2): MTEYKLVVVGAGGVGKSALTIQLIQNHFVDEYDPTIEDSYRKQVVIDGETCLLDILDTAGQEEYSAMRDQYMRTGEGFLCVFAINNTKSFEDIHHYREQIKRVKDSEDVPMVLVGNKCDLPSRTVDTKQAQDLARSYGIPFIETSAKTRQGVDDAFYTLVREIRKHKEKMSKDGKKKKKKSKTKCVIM
Text: as §1, §2, §3

KRAS G12V = molecular target: T3, KRAS G12V (Homo sapiens, UniProt P01116, G12V); assay: HTRF assay, interaction of KRAS G12V with SOS1; conditions: Ras::SOS1 interaction, read-out: Inhibition of KRAS G12V (IC50)
T3 construct: made in house; host or cells: E. coli, e.g. BL21 (DE3)
T3 sequence (P01116 1-188 isoform P01116-2 G12V): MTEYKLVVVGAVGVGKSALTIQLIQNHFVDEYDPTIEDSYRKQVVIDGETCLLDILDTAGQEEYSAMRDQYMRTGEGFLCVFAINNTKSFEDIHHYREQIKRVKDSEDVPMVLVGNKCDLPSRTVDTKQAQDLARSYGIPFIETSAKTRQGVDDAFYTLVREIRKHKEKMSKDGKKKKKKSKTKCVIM
Text: as §1, §2, §3

| Structure (SMILES) | pIC50 (KRAS G12D) | pIC50 (wildtype KRAS) | pIC50 (KRAS G12V) |
| --- | --- | --- | --- |
| C[C@H]1COc2c(Cl)c(-c3ccc(F)c4sc(N)c(C#N)c34)c(F)c3nc4nc(c23)N1CCC=CCC(CN(C)C)O4 (mixture of isomers) [Compound 150, 2-amino-4-((11S)-14-chloro-4-((dimethylamino)methyl)-16-fluoro-11-methyl-4,5,8,9,11,12-hexahydro-2,17-(azeno)benzo[6,7][1,4]oxazepino[5,4-d][1]oxa[3,5]diazacycloundecin-15-yl)-7-fluorobenzo[b]thiophene-3-carbonitrile] | ≥ 5.30 | ≥ 5.30 | ≥ 5.30 |
| CN1C[C@@H]2C[C@H]1COc1nc3c4c(c(Cl)c(-c5ccc(F)c6sc(N)c(C#N)c56)c(F)c4n1)OCCN3CCCO2 (single isomer, unassigned) [Compound 135] | ≥ 5.30 | ≥ 5.30 | ≥ 5.30 |
| CN(C)CCC1CC=CCCN2CCOc3c(Cl)c(-c4ccc(F)c5sc(N)c(C#N)c45)c(F)c4nc(nc2c34)O1 (single isomer, unassigned) [Compound 148, 2-amino-4-(14-chloro-4-(2-(dimethylamino)ethyl)-16-fluoro-4,5,8,9,11,12-hexahydro-2,17-(azeno)benzo[6,7][1,4]oxazepino[5,4-d][1]oxa[3,5]diazacycloundecin-15-yl)-7-fluorobenzo[b]thiophene-3-carbonitrile] | ≥ 5.30 | ≥ 5.30 | ≥ 5.30 |
| CN(C)CC1CC/C=C/CCN2CCOc3c(Cl)c(-c4ccc(F)c5sc(N)c(C#N)c45)c(F)c4nc(nc2c34)O1 (stereo not shown) [Compound 101, (E)-2-amino-4-(15-chloro-4-((dimethylamino)methyl)-17-fluoro-5,6,9,10,12,13-hexahydro-4H-2,18-(azeno)benzo[6,7][1,4]oxazepino[5,4-d][1]oxa[3,5]diazacyclododecin-16-yl)-7-fluorobenzo[b]thiophene-3-carbonitrile] | ≥ 5.30 | ≥ 5.30 | ≥ 5.30 |
| CN1CCCCOc2nc3c4c(c(Cl)c(-c5ccc(F)c6sc(N)c(C#N)c56)c(F)c4n2)OCCN3CCCC1 [Compound 113, 2-amino-4-(17-chloro-19-fluoro-8-methyl-5,6,7,8,9,10,11,12,14,15-decahydro-4H-2,20-(azeno)benzo[6,7][1,4]oxazepino[5,4-d][1]oxa[3,5,10]triazacyclotetradecin-18-yl)-7-fluorobenzo[b]thiophene-3-carbonitrile] | – | – | ≥ 5.30 |

Other lines, results leading:

| pIC50 (KRAS G12D) | pIC50 (wildtype KRAS) | pIC50 (KRAS G12V) | Structure (SMILES) |
| --- | --- | --- | --- |
| ≥ 5.30 | ≥ 5.30 | – | CN(C)CC1CC=CCCN2c3nc(nc4c(F)c(-c5ccc(F)c6sc(N)c(C#N)c56)c(Cl)c(c34)OC[C@@H]2C(F)F)O1 (mixture of isomers) [Compound 107, 2-amino-4-((11R)-14-chloro-11-(difluoromethyl)-4-((dimethylamino)methyl)-16-fluoro-4,5,8,9,11,12-hexahydro-2,17-(azeno)benzo[6,7][1,4]oxazepino[5,4-d][1]oxa[3,5]diazacycloundecin-15-yl)-7-fluorobenzo[b]thiophene-3-carbonitrile] |
| ≥ 5.30 | ≥ 5.30 | ≥ 5.30 | C[C@H]1COc2c(Cl)c(-c3ccc(F)c4sc(N)c(C#N)c34)c(F)c3nc4nc(c23)N1CCC=CCC(CN(C)C)O4 (single isomer, unassigned) [Compound 103] |
| – | – | ≥ 5.30 | CN(C)CC1CC=CCCN2c3nc(nc4c(F)c(-c5ccc(F)c6sc(N)c(C#N)c56)c(Cl)c(c34)OC[C@@H]2C(F)F)O1 (stereo partly drawn) [Compound 115, 2-amino-4-((11R)-14-chloro-11-(difluoromethyl)-4-((dimethylamino)methyl)-16-fluoro-4,5,8,9,11,12-hexahydro-2,17-(azeno)benzo[6,7][1,4]oxazepino[5,4-d][1]oxa[3,5]diazacycloundecin-15-y1)-7-fluorobenzo[b]thiophene-3-carbonitrile] |
